# Experimental data: ChEMBL document CHEMBL2434943, “Elaboration of thorough simplified vinca alkaloids as antimitotic agents based on pharmacophore similarity” (Eur J Med Chem, 2013)
# Where a name gives a salt, the structure may show the parent alone. Active and inactive are the calls of the source. The rule behind the calls is not given here.
# Key:
# [1] = Cytotoxicity against KM mouse splenic lymphocytes assessed as growth inhibition after 72 hrs by MTT assay; conditions: Splenic lymphocyte
# HepG2 [2] = assay: Cytotoxicity against adriamycin-resistant human HepG2 cells assessed as growth inhibition after 72 hrs by MTT assay; assay type: functional, cell-based; conditions: HepG2, 72 h
# MCF7 = assay: Cytotoxicity against human MCF7 cells assessed as growth inhibition after 72 hrs by MTT assay; assay type: functional, cell-based; conditions: MCF7, 72 h
# K562 = assay: Cytotoxicity against human K562 cells assessed as growth inhibition after 72 hrs by MTT assay; assay type: functional, cell-based; conditions: K562, 72 h
# MDA-MB-231 = assay: Cytotoxicity against human MDA-MB-231 cells assessed as growth inhibition after 72 hrs by MTT assay; assay type: functional, cell-based; conditions: MDA-MB-231, 72 h
# HepG2 [3] = assay: Cytotoxicity against human HepG2 cells assessed as growth inhibition after 72 hrs by MTT assay; assay type: functional, cell-based; conditions: HepG2, 72 h
# Tubulin (Homo sapiens) = Tubulin (Homo sapiens) (UniProt P68371+Q9H4B7+P0DPH7+P68366+Q13509+Q71U36+P04350+Q3ZCM7+P07437+P68363+Q9BQE3+Q6PEY2+Q13885+Q9BVA1+Q9BUF5); assay: Inhibition of tubulin polymerization (unknown origin) after 90 mins; assay type: protein-complex assay
# [4] = Cytotoxicity against KM mouse splenic lymphocytes assessed as growth inhibition up to 50 uM after 72 hrs by MTT assay; conditions: splenic lymphocyte
# HepG2 [5] = assay: Antimitotic activity in human HepG2 cells assessed as cell morphological changes at 18 nM after 12 hrs by DAPI staining-based laser scanning confocal microscopic analysis; assay type: functional
inhibition (Tubulin (Homo sapiens)),SMILES,IC50 [1] [µM],IC50 (HepG2 [2]) [µM],IC50 (MCF7) [µM],IC50 (K562) [µM],IC50 (MDA-MB-231) [µM],IC50 (HepG2 [3]) [µM],Activity [4],Activity (HepG2 [5])
Active,CC1(C)C(/C=C/c2ccc(C(F)(F)F)cc2)=Nc2ccccc21,35.4,7.91,1.45,8.87,2.63,9.49,–,–
–,CC1(C)C(/C=C/c2c[nH]c3cc(Cl)ccc23)=Nc2ccccc21,–,9.98,19,13,20.1,18.1,–,–
–,Cc1ccc2[nH]cc(/C=C/C3=Nc4ccccc4C3(C)C)c2c1,–,6.13,15.9,21.2,14.6,18.7,–,–
–,CC1(C)C(/C=C/c2c[nH]c3cc(F)ccc23)=Nc2ccccc21,–,14.9,3.47,20.2,24.4,9.87,–,–
–,CC1(C)C(/C=C/c2ccccc2[N+](=O)[O-])=Nc2ccccc21,–,9.74,1.75,13,3.77,12.7,–,–
–,Cc1cccc(/C=C/C2=Nc3ccccc3C2(C)C)c1,–,10.2,8.31,20.7,10.1,16.4,–,–
–,CC1(C)C(/C=C/c2cccc(C(F)(F)F)c2)=Nc2ccccc21,36.3,9.54,2.13,9.83,3.2,11.7,–,–
–,CC1(C)C(/C=C/c2c[nH]c3c([N+](=O)[O-])cccc23)=Nc2ccccc21,–,4,11.2,21,26.1,16.8,–,–
–,CCC1=C[C@@H]2CN3CCc4c([nH]c5ccccc45)[C@@](C(=O)OC)(C2)[C@@H]13,–,> 50,> 50,> 50,> 50,> 50,–,–
–,CC[C@]1(O)C[C@@H]2CN(CCc3c([nH]c4ccccc34)[C@@](C(=O)OC)(c3cc4c(cc3OC)N(C)[C@H]3[C@@](O)(C(=O)OC)[C@H](OC(C)=O)[C@]5(CC)C=CCN6CC[C@]43[C@@H]65)C2)C1 [VINBLASTINE SULFATE],–,0.056,0.007,0.016,0.0083,0.019,–,–
–,COc1ccc2[nH]cc(/C=C/C3=Nc4ccccc4C3(C)C)c2c1,–,23.4,7.05,16.9,14,18.5,–,–
–,CN(C)c1ccc(/C=C/C2=Nc3ccccc3C2(C)C)cc1,–,22.1,8.1,25.7,15.1,17.9,–,–
–,Cc1c(/C=C/C2=Nc3ccccc3C2(C)C)c2ccccc2n1C,–,3.34,17.1,23.2,38.5,35.9,–,–
–,COc1cc(/C=C/C2=Nc3ccccc3C2(C)C)cc(OC)c1OC,–,10.8,1.76,15.3,4.13,12.7,Non-toxic,–
Active,CC[C@]1(O)C[C@@H]2CN(CCc3c([nH]c4ccccc34)[C@@](C(=O)OC)(c3cc4c(cc3OC)N(C)[C@H]3[C@@](O)(C(=O)OC)[C@H](OC(C)=O)[C@]5(CC)C=CCN6CC[C@]43[C@@H]65)C2)C1,–,–,–,–,–,–,–,Active
–,Cn1cc(/C=C/C2=Nc3ccccc3C2(C)C)c2ccccc21,–,18.7,12.6,20.8,22.4,39.4,–,–
–,CC1(C)C(/C=C/c2ccc(Br)cc2)=Nc2ccccc21,–,9.92,5.26,20.2,5.16,15.6,–,–
–,COc1ccc(/C=C/C2=Nc3ccccc3C2(C)C)cc1,–,47,10.4,19.9,15.6,20.8,–,–
–,CC1(C)C(/C=C/c2c[nH]c3ccccc23)=Nc2ccccc21,–,12.2,3.88,23,11.6,17.9,Non-toxic,–
–,COc1ccccc1/C=C/C1=Nc2ccccc2C1(C)C,–,12.6,5.13,22.9,10.7,22,–,–
Active,COc1cccc(/C=C/C2=Nc3ccccc3C2(C)C)c1,–,9.94,2.19,9.64,3.1,11.4,–,–
–,Cc1ccc(/C=C/C2=Nc3ccccc3C2(C)C)cc1,–,> 50,13.2,26.1,22,43.9,–,–
–,CCC12C=CCN3CC[C@@]4(c5ccc(OC)cc5N(C)[C@H]4[C@@](O)(C(=O)OC)[C@@H]1OC(C)=O)[C@@H]32 (stereo partly specified) [VINDOLINE],–,> 50,> 50,> 50,> 50,> 50,–,–
–,CC[C@]1(O)C[C@@H]2CN(CCc3c([nH]c4ccccc34)[C@@](C(=O)OC)(c3cc4c(cc3OC)N(C)[C@H]3[C@@](O)(C(=O)OC)[C@H](OC(C)=O)[C@]5(CC)C=CCN6CC[C@]43[C@@H]65)C2)C1 [VINBLASTINE],0.0016,–,–,–,–,–,–,–
–,Cc1[nH]c2ccccc2c1/C=C/C1=Nc2ccccc2C1(C)C,–,4.41,6.25,22.7,32.6,15.4,–,–
–,CC1(C)C(/C=C/c2ccc([N+](=O)[O-])cc2)=Nc2ccccc21,20.7,2.49,0.96,4.32,2.01,5.55,–,–
–,COc1ccc(/C=C/C2=Nc3ccccc3C2(C)C)cc1OC,–,28.6,12,37.1,9.11,35,–,–
–,CC1(C)C(/C=C/c2c[nH]c3ccc(Br)cc23)=Nc2ccccc21,–,9.1,21,20.1,21.8,21.5,–,–
–,CC1(C)C(/C=C/c2c[nH]c3cccc(C#N)c23)=Nc2ccccc21,–,3.18,8.95,15.8,18.8,9.22,Non-toxic,–
–,CCN(CC)c1ccc(/C=C/C2=Nc3ccccc3C2(C)C)cc1,–,15.1,11.8,28.2,16.1,22.9,–,–
